PubChem BioAssay (NCI)
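Five concentrations, 48 hours, 96-well plates. At the TGI there is no net growth.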

How the values were obtained:
Assay in all cases: NCI tumour cell line growth inhibition, 48 h
MOLT-4 leukemia = tested on: MOLT-4 leukemia
UACC-257 melanoma = tested on: UACC-257 melanoma
HOP-92 NSCLC = tested on: HOP-92 NSCLC
M14 melanoma = tested on: M14 melanoma
HT29 colon = tested on: HT29 colon
SK-OV-3 ovarian = tested on: SK-OV-3 ovarian
UO-31 renal = tested on: UO-31 renal
K-562 leukemia = tested on: K-562 leukemia
A498 renal = tested on: A498 renal
HL-60(TB) leukemia = tested on: HL-60(TB) leukemia
BT-549 breast = tested on: BT-549 breast

| Structure (SMILES) | TGI (MOLT-4 leukemia) [µM] | TGI (UACC-257 melanoma) [µM] | TGI (HOP-92 NSCLC) [µM] | TGI (M14 melanoma) [µM] | TGI (HT29 colon) [µM] | TGI (SK-OV-3 ovarian) [µM] | TGI (UO-31 renal) [µM] | TGI (K-562 leukemia) [µM] | TGI (A498 renal) [µM] | TGI (HL-60(TB) leukemia) [µM] | TGI (BT-549 breast) [µM] |
| --- | --- | --- | --- | --- | --- | --- | --- | --- | --- | --- | --- |
| [O-]c1c2c(nn1-c1ccc(F)cc1)c1ccccc1c[n+]2Cc1ccccc1 | 81.5 | 30.3 | 57.9 | 15.3 | 27.1 | 41.8 | 54.9 | 81.4 | 85.3 | 11.1 |  |
| CN(C)CCC(=O)[C@@]1(O)CC[C@H]2[C@@H]3CC=C4C[C@@H](O)CC[C@]4(C)[C@H]3CC[C@@]21C | 53.1 | 26.1 | 39.7 | 34.2 | 37.5 | > 66.8 | 31.7 | 48.9 | 29.7 | 37.7 | 32.8 |
| O=C(c1ccccc1)c1ccc(N2C(=O)/C(=C/c3cccc(Oc4ccccc4)c3)N=C2c2ccccc2)c(N2C(=O)/C(=C/c3cccc(Oc4ccccc4)c3)N=C2c2ccccc2)c1 | > 100 | 71.7 | > 100 | > 100 | > 100 | > 100 | > 100 | > 100 | > 100 | 35.9 | > 100 |
| NC1=NC(c2ccc(Cl)cc2)=CC(c2cccc(Cl)c2)S1 (configuration not stated) | > 100 | 81.7 | 60.1 | > 100 | > 100 | > 100 | 84.6 | > 100 |  | > 100 | > 100 |
| CCCCC(CC)C(=O)Oc1ccc(C(=O)c2ccccc2)c(O)c1 (configuration not stated) | > 100 | > 100 | 59.4 | > 100 | > 100 | > 100 | > 100 | > 100 | > 100 | > 100 | > 100 |
| CCOC(=O)N1c2ccccc2N(C(=O)OCC)C1CC(=O)/C=C/c1ccccc1 | 12.4 | 21.9 | 6.16 | 19.3 | 8.41 | 23 | 14.7 | > 30.7 | 10.6 | 6.94 | 9.84 |
| CC(C)=CCC/C(C)=C/Cc1c2c(c3oc(-c4ccc(O)c(O)c4)c(O)c(=O)c3c1O)C=CC(C)(C)O2 | 8.98 | 11.2 |  | 9.42 | 9.79 | 8.65 | 10.2 | 9.63 | 12.9 | 6.29 | 15 |
| O=C1c2cc3c(cc2[C@@H]2C(O)[C@H]4O[C@H]4C4CCN1C42)OCO3 (some centres not stated) | > 37.5 |  | > 37.5 | > 37.5 | > 37.5 | > 37.5 | > 37.5 | > 37.5 |  | > 37.5 |  |
| Cc1csc2nc(-c3cc([N+](=O)[O-])c(Cl)cc3Cl)c(/C=N/N=C(N)N)n12 | 18.8 | 32.8 | 32.1 | 34.3 | 30.5 |  | 29.4 | 20.4 | 35 | 28.9 | 29.5 |
| CC(C)N(CC(=O)O)CC(=O)O | > 100 | > 100 | > 100 | > 100 | > 100 | > 100 | > 100 | > 100 | > 100 | > 100 | > 100 |
| CO[P@@]1(=O)O[C@@H](c2ccccc2)[C@H](O)[C@@]1(O)c1ccccc1 | > 100 | > 100 | > 100 | > 100 | > 100 | > 100 | > 100 | > 100 | > 100 | > 100 | > 100 |
| Nc1[nH]c(=O)nc2c1cnn2COCCO | > 100 | > 100 | > 100 | > 100 | > 100 |  | > 100 | > 100 | > 100 | > 100 |  |
| O=P1(Oc2ccc(Cl)cc2Cl)Oc2cc3ccccc3cc2O1 | > 71.4 | > 100 | > 100 |  | > 100 | > 100 | > 100 | > 100 | > 90.5 | 50.8 |  |
| CCOC(=O)c1sc2nc(SC)nc3c2c1NC(=O)CN3c1ccc(F)cc1 | > 100 | > 100 | > 100 | > 100 | > 100 | 57.7 | 46.9 | > 100 | 98.7 | > 100 | 43.3 |
| CC1(C=O)CC(CCc2ccccc2)NC1Cc1ccc(O)cc1 (configuration not stated) | 38.2 | 29.6 | 30 | 29.7 | 29.5 | 33.4 | 28.4 | 48.1 | 27.9 | 31.8 | 39.4 |
| COc1cc2cc(C(=O)N3CC(CCl)c4ccc(NO)cc43)[nH]c2c(OC)c1OC (configuration not stated) | 0.61 |  |  | 0.768 | 11.8 | 3.01 | 0.392 | 0.965 | > 100 | 0.403 | 1.05 |
| CCOC(=O)C(C(=O)OCC)c1cc(-c2cc3ccccc3o2)oc(=O)c1C#N | 87.2 | 76.4 | 20.6 | 36.9 | 35 |  | 90.3 | > 100 | 70.1 | 64.8 |  |
| Nc1ccc(Oc2ccc(C34CC5C6CC7(c8ccc(Oc9ccc(N)cc9)cc8)CC5C(C3)C(C7)C6C4)cc2)cc1 | > 100 | > 100 | > 100 | > 100 | > 100 |  | > 100 | > 100 | > 100 | > 100 | > 100 |
